# From a melting point compilation (Tetko et al.; mined from patent text by program, amines drawn as free bases though some values may be those of a salt)
row,Structure (SMILES),melting point [°C]
1,CCOC(=O)c1cn(C)nc1Nc1ccc(C(F)(F)F)cc1N,162
2,CC(C)OC1CCC(=O)N1S(=O)(=O)C=Cc1ccccc1 (stereo unspecified),92 to 94
3,Cc1ccn(Cc2ccc(Cl)c(Cl)c2)c(=O)c1C(=O)O,219 to 221
4,COc1ccccc1NC(=O)Cc1ccccc1,128 to 131
5,CCCc1c(C(=O)C(C)C)c2ccc(C(N)=O)cc2n1Cc1ccc(Br)cc1Cl,199 to 201
6,COc1ccc(C(=O)N2c3ccccc3C(n3c4ccccc4c4ccccc43)CC2CCCCC(=O)O)cc1OC (stereo unspecified),226 to 228
7,O=C(O)CCN1CCN(Cc2ccccc2)CC1,165 to 166
8,CCNCCCN1c2ccccc2N(C)C(=O)c2c(C)cc(C)nc21,101 to 103
9,COc1cc(C2=C(c3cn(C)c4ccccc34)C(=O)NC2=O)cc(OC)c1OC,187
10,COC(=O)CCC(NC(=O)c1cn(C(c2ccccc2)(c2ccccc2)c2ccccc2)c(I)n1)C(=O)OC (stereo unspecified),86 to 88
11,Cc1cc2cc(Nc3ccnc4cc(-c5ccc(CNCCCN(C)C)cc5)sc34)ccc2[nH]1,167
12,CSc1ccccc1-c1ccc(C(=O)O)cc1,220 to 222
13,CC(C)(C)OC(=O)NCCNC(=O)c1cnc(S)n1Cc1cc(F)cc(F)c1,178 to 179
14,CC(C)P1(=O)c2ccccc2CN1C(C)(C)C (stereo unspecified),67 to 70
15,COC(=O)c1cnoc1-c1ccc(F)cc1,92 to 93
16,CNC(=O)Oc1cnn(C(C)C)c1,40
17,COCCc1nc2c(N)nc3c(c2n1CCOCCNS(C)(=O)=O)CCCC3,151 to 153
18,COc1nc2cc([N+](=O)[O-])c(C)c(C(=O)Nc3ccccc3)c2nc1OC,238 to 240
19,NC(=O)c1cc2c(Oc3ccc(C(F)(F)F)cc3)cnc(Cl)c2s1,175 to 176
20,CCC1Sc2cc(-c3cccc([N+](=O)[O-])c3)ccc2NC1=O (stereo unspecified),180
21,COc1ccc(C(=O)N(C(=O)c2ccc(OC)cc2)c2nc3ccc(N(C)C)cc3c(NCc3cccs3)c2C#N)cc1,171
22,COc1ccccc1NC(=O)Nc1nc(Oc2ccc3ccccc3c2)nc(N(CCC(=O)O)Cc2cccc(C)c2)n1,105 to 125
23,CCOC(=O)CCCCCCc1ccc2ccccc2c1O,41 to 42
24,Cn1ncc(CO)c1-c1ccc(Cl)cc1C(O)c1ccccc1F (stereo unspecified),152 to 155

row,Structure (SMILES),melting point [°C]
1,O=[N+]([O-])c1cc2nc(O)c(O)nc2cc1Br,> 300
2,O=C(NCc1ccc(Cl)cc1)c1cnc2ccc(I)cn2c1=O,191 to 194
3,CC(C)Nc1nc(N2CCOCC2)nc2cscc12,202
4,CC(=O)Oc1cccc2c(-c3cccs3)c3cccc(OC(C)=O)c3c(OC(C)=O)c12,260
5,COC(=O)C1NC(C(=O)OC)C(C(=O)OC)NC1C(=O)OC (stereo unspecified),162 to 163
6,CC(C)(O)C(=O)Nc1nc(-c2ccco2)c(C(=O)c2ccccc2)s1,153 to 154
7,COC(=O)c1nc(Cl)sc1-c1ccccc1,63 to 65
8,Cc1cc2c(cc1O)C(C)(C)CCC2(C)C,122 to 123
9,CCCCC(=N)NC(=O)Nc1ccc(Cl)c(Cl)c1,177 to 179
10,COCCOc1cccc2cc(-c3nnn[nH]3)c(=O)oc12,215
11,CC12C=CC(O)CC1=CCC1C2CCC2(C)C(=O)CCC12 (stereo unspecified),138 to 140
12,COc1nccc(Oc2ccc(NC(=O)c3cc(F)cc(N4CCOCC4)c3)c3ccccc23)n1,216 to 217
13,[O-][N+](O)=Cc1ccc(Cl)cc1,151 to 153
14,Cn1nnnc1NCCSCc1csc(NC(=N)N)n1,80 to 83
15,Cc1cn2c(=O)c3cc(S(=O)(=O)Cl)ccc3nc2s1,206 to 209
16,O=C(c1ccc(Cl)cc1)C(Cn1cncn1)n1cncn1 (stereo unspecified),204
17,O=C(Nc1ccc(S(=O)(=O)C[N+](=O)[O-])cc1)c1ccccc1,211 to 212
18,CCOC(=O)c1nnnn1Cc1ccccc1,58 to 61
19,Cc1c(-c2ccccc2)[nH]c(=O)n1C1CCN(Cc2cccc(C(F)(F)F)c2)CC1,243
20,CC(Oc1ccc(N)c([N+](=O)[O-])c1)c1cc(F)ccc1Cl (stereo unspecified),110
21,CC(C)(C)OC(=O)NC(CC1=CC(=O)NC1=O)C(=O)OC(C)(C)C (stereo unspecified),104 to 105
22,COc1cc(Nc2c(C#N)cnc3cc(-c4ccccc4CN4CCOCC4)ccc23)c(Cl)cc1Cl,107 to 109
23,O=C1Cc2ccccc2Sc2cc(C(F)(F)F)c(Cl)cc21,123 to 124
24,N[C@@H](Cc1ccc(Cl)c(OC(F)(F)C(F)F)c1)[C@H](O)c1ccc(F)cc1 (racemic),109 to 110

row,Structure (SMILES),melting point [°C]
1,COC(=N)Nc1ccc(C(F)(F)F)cc1,121 to 123
2,O=C1OC(O)c2ccc(Cl)cc21 (stereo unspecified),108 to 109
3,CC(=O)CCN(CCN)c1nc2cc(Cl)ccc2o1,126
4,Clc1ccc2c(c1)[nH]c1cc(Cl)ccc12,188 to 189
5,O=C(NO)c1cnc(N(CCO)Cc2cc3nc(-c4cccc5[nH]ncc45)nc(N4CCOCC4)c3s2)nc1,190 to 194
6,COc1ccc(C=CC(=O)CN2CCOCC2)cc1,78
7,CN(C)C=CC(=O)c1ccc(I)cc1,117 to 118
8,Nc1ccc(C#Cc2c(F)c(F)nc(F)c2F)cc1,164 to 165
9,COc1cccc2c1CC(CC=O)C2=O (racemic),71
10,CSc1ccc(N)c([N+](=O)[O-])c1,72 to 73
11,COc1ccc(F)cc1C(C)(C)CC(O)(C(=O)Nc1ccccc1)C(F)(F)F (stereo unspecified),83 to 85
12,CCOC(=O)c1ccc(NC2(C(N)=O)CCCCC2)cc1,155 to 157
13,COC(=O)c1ccc(CCNCC(O)c2ccccc2Cl)cc1 (stereo unspecified),94 to 95
14,OCC(O)(c1ccccc1)C(Cl)c1ccccc1 (stereo unspecified),108 to 109
15,COc1cc2c(cc1OC)N(N)C(=O)C(C(=O)OC(C)(C)C)C2 (stereo unspecified),155 to 157
16,OC[C@H](O)CNc1ccc2cc(OCC3CC3)ccc2c1,138
17,C#CCOc1cc(NNC(=S)C(C)(C)C)c(Cl)cc1Cl,126 to 128
18,CC1C(=O)NN(c2cc(Cl)cc(Cl)c2)C1=O (stereo unspecified),95 to 100
19,CN1CC(CCCl)Sc2ncccc2C1=S (stereo unspecified),160 to 162
20,Cc1ccc2c(c1)[C@@H]1CN(C)CC[C@@H]1CC2=O (relative stereo),> 250
21,CCc1cc(CC)c2ccc(=O)n(CCN(C)C)c2n1,59.5 to 61
22,[N-]=[N+]=NOS(=O)(=O)N=[N+]=[N-],60

# Results, then the compound that gave them:
row,melting point [°C],Structure (SMILES)
1,170 to 175,O=C1NC(=O)c2cc(NC3CCCCC3)c(NC3CCCCC3)cc21
2,76 to 76.5,CCOC(=O)C(C)(C)c1ccc(NC(C)=O)cc1
3,214,Cn1nc(N)cc1COCc1ccccc1
4,72 to 74,CC(=O)Oc1ccc(OCc2ccccc2)cc1CC(Br)CBr (racemic)
5,175,O=Cc1ccc(C=CC(=O)N2CCc3c([nH]c4ccccc34)C2c2ccc3c(c2)CCO3)cc1 (stereo unspecified)
6,211 to 212,CCOC(=O)c1ncn2c3ccccc3c(=O)n(C)c12
7,> 300,COc1ccc(-c2[nH]nc3c2C(=O)c2c(NC(=O)NNC(=O)c4ccc(O)c(O)c4)cccc2-3)cc1
8,172,CC(C)(C)OC(=O)N1CCN(C2CCN(c3ccc(N)cc3C#N)CC2)CC1
9,85 to 89,COc1ccc(C=CC(=O)C=Cc2ccccc2)cc1
10,229 to 230,Nc1c2c(nc3ccc(F)cc13)CCCC2
11,78,CCC(=O)CC(=O)c1ccc(C2CCC(CC)CC2)cc1 (stereo unspecified)
12,153 to 154,Cc1cc(C(=O)NCCO)ncc1C(c1cc(F)ccc1F)S(=O)(=O)c1ccc(F)cc1 (stereo unspecified)
13,132 to 134,CC(=O)OCC1OC(Oc2nc[nH]c2C(N)=O)C(OC(C)=O)C1OC(C)=O (stereo unspecified)
14,110,O=C(O)c1cccc(Cl)c1C(F)(F)F
15,249,CC1(C)CCc2c(sc3cc(OS(=O)(=O)Cc4ccccc4OC(F)(F)F)ccc3c2=O)C1
16,89 to 91,CCOC(=O)/C=C/c1cccc(-c2ccc(OCC)c(OC)c2)c1
17,118 to 120,NS(=O)(=O)c1cc2cc(CCBr)ccc2s1
18,98 to 101,CN(C)S(=O)(=O)c1c(S(N)(=O)=O)c(C(C)(C)C)cn1C

row,melting point [°C],Structure (SMILES)
1,110 to 112,CC=C(C)C(=O)c1c(O)c2c(c3c(CCC)cc(=O)oc13)OC(C)(C)C=C2
2,146 to 150,COc1nc(N)nc(SC(F)F)n1
3,179 to 183,C=CCC1(CC=C)c2cc(N(c3ccccc3)c3ccccc3)ccc2-c2ccc(N(c3ccccc3)c3ccccc3)cc21
4,59 to 59.5,CC(=O)N[C@@H](CSC(=O)C(C)C)C(=O)OC(C)C
5,48 to 50,CCOC(=O)c1c(C)nc2scnc2c1NC(C)C
6,63 to 65,Cc1cc(Cl)ccc1OC(Cn1cncn1)C(=O)C(C)(C)C (stereo unspecified)
7,288 to 290,O=C(O)c1oc(=O)c2ncccc2c1-c1ccccc1
8,156 to 158,CC1(C)CC(=O)C2=C(C1)NC1=C(C(=O)CC(C)(C)C1)C2c1cccc(OCc2ccncc2)c1
9,56 to 56.9,COc1cccc(C2OCCC(C)(C)C2(O)C(C)C)c1 (stereo unspecified)
10,71 to 73,CC(C)c1ccc(NCc2ccc(N(C)C)cc2)cc1
11,239 to 241,CCc1ccc(C(=O)Oc2ccc(C(=O)O)cc2)cc1C12CC3CC(CC(C3)C1)C2
12,91 to 93,CC(C)(CO)NC(=O)c1cccnc1
13,248 to 250,O=C(NCc1cc[nH]c(=O)c1)c1nc2ccc(F)c(OCc3ccc(F)cc3)c2c(=O)[nH]1
14,68 to 70,CSc1ccc(C(=O)CC(=O)C(F)F)cc1
15,115 to 118,COc1cc2cc(CO)cc(-c3ccnc(Cl)c3)c2cc1OC
16,258 to 260,O=C(O)c1cc(=O)c2cc(O)c(=O)ccc2[nH]1
17,104 to 106,NNc1nc(F)c(C(F)(F)F)cc1Cl
18,130 to 132,COC1=NC(c2cccc([N+](=O)[O-])c2)C(C(=O)OC(C)C)=C(C)N1 (stereo unspecified)
